According to ChEMBL document CHEMBL4118260, “Structure-based drug design to overcome species differences in kallikrein 7 inhibition of 1,3,6-trisubstituted 1,4-diazepan-7-ones” (Bioorg Med Chem, 2018):

What was measured:
Kallikrein-7 [1] = target: Kallikrein-7 (Homo sapiens, UniProt P49862); experiment: Inhibition of recombinant human C-terminal His10-tagged KLK7 (E23 to H252 residues) using MOCAcArg-Pro-Lys-Pro-Val-Glu-Nva-Trp-Arg-Lys(Dnp)-NH2 as substrate preincubated for 10 mins followed by substrate addition measured after 30 mins by fluorescence assay
Kallikrein-7 [2] = target: Kallikrein-7 (Mus musculus, UniProt Q91VE3); experiment: Inhibition of mouse KLK7 using MOCAcArg-Pro-Lys-Pro-Val-Glu-Nva-Trp-Arg-Lys(Dnp)-NH2 as substrate preincubated for 10 mins followed by substrate addition measured after 30 mins by fluorescence assay
[3] = target: Kallikrein-7 (Mus musculus) (UniProt Q91VE3); experiment: Inhibition of mouse KLK7 at 30 uM using MOCAcArg-Pro-Lys-Pro-Val-Glu-Nva-Trp-Arg-Lys(Dnp)-NH2 as substrate preincubated for 10 mins followed by substrate addition measured after 30 mins by fluorescence assay relative to control
Sequence of Kallikrein-7 (Mus musculus) (Q91VE3 whole entry): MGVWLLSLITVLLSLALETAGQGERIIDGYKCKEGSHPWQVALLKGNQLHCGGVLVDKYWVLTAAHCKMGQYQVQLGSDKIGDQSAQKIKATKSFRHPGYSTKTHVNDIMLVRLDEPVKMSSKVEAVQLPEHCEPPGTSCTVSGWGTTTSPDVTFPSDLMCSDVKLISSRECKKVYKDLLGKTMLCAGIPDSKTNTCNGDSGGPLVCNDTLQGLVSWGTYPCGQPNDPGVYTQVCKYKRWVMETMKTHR

Sequence of Kallikrein-7 (Mus musculus, UniProt Q91VE3) (Q91VE3 whole entry): as above
Sequence of Kallikrein-7 (Homo sapiens, UniProt P49862) (P49862 whole entry, the tested form may be a part): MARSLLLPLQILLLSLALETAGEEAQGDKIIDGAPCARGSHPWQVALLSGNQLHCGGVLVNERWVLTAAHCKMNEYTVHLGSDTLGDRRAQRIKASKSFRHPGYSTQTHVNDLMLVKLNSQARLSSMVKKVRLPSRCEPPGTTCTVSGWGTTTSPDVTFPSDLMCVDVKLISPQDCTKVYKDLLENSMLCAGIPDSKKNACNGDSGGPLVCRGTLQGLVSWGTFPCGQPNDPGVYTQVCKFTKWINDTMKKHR

Structure (SMILES) | IC50 (Kallikrein-7 [1]) | IC50 (Kallikrein-7 [2]) | inhibition [3]
CN(C)/N=C1/CN(CC(=O)Nc2cccc(-c3cnn(C)c3)c2)C(=O)C(Cc2c(F)cccc2Cl)CN1 (racemic) | 0.94 µM | 6 µM | 
CN(C)/N=C1/CN(CC(=O)Nc2cccc(-c3cnn(C)c3)c2)C(=O)C(Cc2c(Cl)cccc2Cl)CN1 (racemic) | 0.79 µM | 1.2 µM | 
Cc1cccc(C#N)c1CC1CN/C(=N\N(C)C)CN(CC(=O)Nc2cccc(-c3cnn(C)c3)c2)C1=O (racemic) | 11 µM | 7.1 µM | 
Cc1cccc(Cl)c1CC1CN/C(=N\N(C)C)CN(CC(=O)Nc2cccc(-c3cnn(C)c3)c2)C1=O (racemic) | 1.5 µM | 1.6 µM | 
COc1ccc(Cl)cc1C[C@@H]1CN/C(=N\N(C)C)CN(CC(=O)Nc2cccc(C(=O)O)c2)C1=O |  | > 30 µM | 11%
COc1cc(Cl)ccc1CC1CN/C(=N\N(C)C)CN(CC(=O)Nc2cccc(-c3cnn(C)c3)c2)C1=O (racemic) | 7.5 µM | > 30 µM | -4.1%
Cc1cccc(C)c1CC1CN/C(=N\N(C)C)CN(CC(=O)Nc2cccc(-c3cnn(C)c3)c2)C1=O (racemic) | 5.2 µM | 3.8 µM | 
COc1cccc(C)c1CC1CN/C(=N\N(C)C)CN(CC(=O)Nc2cccc(-c3cnn(C)c3)c2)C1=O (racemic) | 13 µM | 19 µM | 
COc1ccc(Cl)cc1C[C@@H]1CN/C(=N\N(C)C)CN(CC(=O)Nc2cccc(-c3cnn(C)c3)c2)C1=O |  | > 30 µM | -1.2%
CN(C)/N=C1/CN(CC(=O)Nc2cccc(-c3cnn(C)c3)c2)C(=O)C(Cc2ccccc2C#N)CN1 (racemic) | 17 µM | > 30 µM | 22%
COc1cccc(F)c1CC1CN/C(=N\N(C)C)CN(CC(=O)Nc2cccc(-c3cnn(C)c3)c2)C1=O (racemic) | 6.8 µM | > 30 µM | 
Cc1cccc(F)c1CC1CN/C(=N\N(C)C)CN(CC(=O)Nc2cccc(-c3cnn(C)c3)c2)C1=O (racemic) | 2.3 µM | 7.7 µM | 
CN(C)/N=C1/CN(CC(=O)Nc2cccc(-c3cnn(C)c3)c2)C(=O)C(Cc2c(Cl)cccc2Cl)CN1 (stereo in doubt; (+)-22g) | > 30 µM | 16 µM | 
COc1cccc(Cl)c1CC1CN/C(=N\N(C)C)CN(CC(=O)Nc2cccc(-c3cnn(C)c3)c2)C1=O (racemic) | 11 µM | 14 µM | 67%
CN(C)/N=C1/CN(CC(=O)Nc2cccc(-c3cnn(C)c3)c2)C(=O)C(Cc2c(Cl)cccc2C#N)CN1 (racemic) | 11 µM | 7.8 µM | 
CN(C)/N=C1/CN(CC(=O)Nc2cccc(-c3cnn(C)c3)c2)C(=O)C(Cc2c(F)cccc2F)CN1 (racemic) | 6.9 µM | > 30 µM | 
COc1ccccc1C[C@@H]1CN/C(=N\N(C)C)CN(CC(=O)Nc2cccc(-c3cnn(C)c3)c2)C1=O | 2.4 µM | > 30 µM | 41%
COc1ccc(Cl)cc1C[C@@H]1CN/C(=N\N(C)C)CN([C@@H](C)C(=O)Nc2cccc(-c3cnn(C)c3)c2)C1=O |  | > 30 µM | 32%
CN(C)/N=C1/CN(CC(=O)Nc2cccc(-c3cnn(C)c3)c2)C(=O)C(Cc2ccccc2Cl)CN1 (racemic) | 2.5 µM | 21 µM | 59%
CN(C)/N=C1/CN(CC(=O)Nc2cccc(-c3cnn(C)c3)c2)C(=O)C(Cc2c(Cl)cccc2Cl)CN1 (single isomer, unassigned; (-)) | 0.38 µM | 0.7 µM | 
CN(C)/N=C1/CN(CC(=O)Nc2cccc(-c3cnn(C)c3)c2)C(=O)C(Cc2c(F)cccc2C(F)(F)F)CN1 (racemic) | 2.7 µM | > 30 µM | 
